{
  "source": "patent EP4755403A1",
  "about": "“ANTI-PSMA ANTIBODY-DRUG CONJUGATE AND PHARMACEUTICAL USE THEREOF” (Jiangsu Hengrui Pharmaceuticals Co., Ltd., priority 2023, dated 2025)",
  "assay_in_all_cases": "Cell killing activity of ADC molecules (CellTiter-Glo)",
  "assay_type_in_all_cases": "cell-based, human",
  "conditions_in_all_cases": "5 days",
  "key": {"22RV1 cells": {"tested_on": "22RV1 cells", "procedure": "(§1) LNCaP (ATCC, CRL-1740), 22RV1 (ATCC, CRL-2505), and PC-3 (ATCC, CRL-1435) cells were digested with trypsin, neutralized with a fresh medium, centrifuged at 1000 rpm, and then resuspended in a medium. After the cells were counted, the density of the cell suspensions was adjusted to […], and the cells were plated onto a 96-well plate. The adjusted cell suspension (135 µL) was added to each well with […]. Only the middle 60 wells were used for plating, and six wells in the twelfth column were taken as pure medium controls without cells. An equal volume of PBS was added to the other wells. The cells were incubated at 37 °C with 5% CO2 for 16 h.\n(§2) Then 20 µL of the dilution was added to the cell plate described above, and the plate was incubated in an incubator (37 °C, 5% CO2) for 5 days. […] Subsequently, 9-point serial dilutions at a 1:3 ratio were performed with PBS. Then 1 µL of the dilution was added to 20 µL of RPMI-1640, and the mixture was transferred to a 96-well cell culture plate. The plate was incubated in an incubator (37 °C, 5% CO2) for 5 days. In the 96-well cell culture plate, 80 µL of the CellTiter-Glo reagent was added to each well, and the plate was left to stand in the dark at room temperature for 10-15 min. The chemiluminescence signal values were read on Victor3, and the data were processed using GraphPad software.\n(§3) On the fifth day, the culture plate was taken out and allowed to return to room temperature. The CellTiter-Glo assay solution (75 µL) was added to each well, and the plate was left to stand in the dark at room temperature for 10 min. A Backseal membrane was attached to the bottom of the cell culture plate. The plate was placed on a microplate reader Victor 3, and luminescence signal values were read. Curve fitting was performed according to the log values of concentrations of the test compounds to the corresponding signal values using Graphpad Prism software, and IC50 values were calculated. The maximum value of killing was defined as the maximum killing rate (Imax) of the compound. The killing rate was calculated as follows: [formula]"}, "LNCaP cells": {"tested_on": "LNCaP cells", "procedure": "as §1, §2, §3"}, "PC-3 cells": {"tested_on": "PC-3 cells", "procedure": "as §1, §2, §3"}, "[1]": {"conditions": "Homo sapiens, 120 h, read-out: IC50 (killing effect)"}},
  "data": [
    {"smiles": "CC[C@@]1(O)C(=O)OCc2c1cc1n(c2=O)Cc2c-1nc1cc(F)c(C)c3c1c2[C@@H](NC(=O)[C@H](O)C1CC1)CC3", "note": "[Compound 2-B]", "values": [
      {"measurement": "Imax (maximum killing rate)", "setting": "22RV1 cells", "value": 98.07, "unit": "%"},
      {"measurement": "IC50", "setting": "22RV1 cells; [1]", "value": 0.534, "unit": "nM"},
      {"measurement": "Imax (maximum killing rate)", "setting": "LNCaP cells", "value": 97.13, "unit": "%"},
      {"measurement": "IC50", "setting": "LNCaP cells; [1]", "value": 0.535, "unit": "nM"},
      {"measurement": "Imax (maximum killing rate)", "setting": "PC-3 cells", "value": 92.78, "unit": "%"},
      {"measurement": "IC50", "setting": "PC-3 cells; [1]", "value": 1.54, "unit": "nM"}
    ]}
  ]
}
